What was measured:
[1] = target: Core antigen (Hepatitis B virus) (UniProt Q03732); assay: Inhibition of hepatitis B virus capsid assembly infected in human HepG2.215 cells assessed as reduction in viral DNA replication measured on day 7 by real time PCR analysis; type: cell-based
[2] = target: Bile acid receptor (Homo sapiens) (UniProt Q96RI1); assay: Agonist activity at FXR (unknown origin) at 1 uM
[3] = test system: Canis familiaris; assay: Cmax in beagle dog at 45 mg/kg, po by LC/MS/MS analysis; type: ADME, organism-based, Canis lupus familiaris; parameters: dose 45 mg/kg, route oral; conditions: in vivo
[4] = test system: Mus musculus; assay: Biotransformation in po dosed mouse assessed as (R)-Ethyl 4-(2-bromo-4-fluorophenyl)-6-(morpholinomethyl)-2-(thiazol-2-yl)-1,4-dihydropyrimidine-5-carboxylate formation; type: ADME, organism-based; conditions: in vivo
[5] = target: Platelet-activating factor receptor (Homo sapiens) (UniProt P25105); assay: Inhibition of platelet-activating factor receptor (unknown origin) at 1 uM
[6] = target: Tyrosine-protein kinase JAK2 (Homo sapiens) (UniProt O60674); assay: Inhibition of JAK2 (unknown origin) at 1 uM
[7] = AUC (0 to 24 hrs) in beagle dog at 5 mg/kg, iv by LC/MS/MS analysis; type: ADME, organism-based, Canis lupus familiaris; parameters: dose 5 mg/kg, time < 24 hr, route intravenous; conditions: in vivo
[8] = target: Bile acid receptor (Homo sapiens) (UniProt Q96RI1); assay: Antagonist activity at FXR (unknown origin) at 1 uM
[9] = target: Tyrosine-protein kinase ZAP-70 (Homo sapiens) (UniProt P43403); assay: Inhibition of ZA70 (unknown origin) at 1 uM
[10] = test system: Canis familiaris; assay: Cmax in beagle dog at 5 mg/kg, po by LC/MS/MS analysis; type: ADME, organism-based, Canis lupus familiaris; parameters: dose 5 mg/kg, route oral; conditions: in vivo
[11] = test system: Canis familiaris; assay: Cmax in beagle dog at 15 mg/kg, po for 7 days by LC/MS/MS analysis; type: ADME, organism-based, Canis lupus familiaris; parameters: dose 15 mg/kg, route oral; conditions: in vivo, 168 h
[12] = test system: Canis familiaris; assay: Biotransformation in po dosed beagle dog assessed as (R)-Ethyl 4-(2-bromo-4-fluorophenyl)-6-(morpholinomethyl)-2-(thiazol-2-yl)-1,4-dihydropyrimidine-5-carboxylate formation; type: ADME, organism-based, Canis lupus familiaris; conditions: in vivo
[13] = target: Epidermal growth factor receptor (Homo sapiens) (UniProt P00533); assay: Inhibition of EGFR (unknown origin) at 1 uM
[14] = target: Protein kinase C alpha type (Homo sapiens) (UniProt P17252); assay: Inhibition of PKCalpha (unknown origin) at 1 uM
[15] = Drug uptake in beagle dog liver by LC/MS/MS analysis; type: ADME, tissue-based, Canis lupus familiaris; conditions: in vivo
[16] = target: Oxysterols receptor LXR-beta (Homo sapiens) (UniProt P55055); assay: Agonist activity at LXRbeta (unknown origin) at 1 uM
[17] = test system: Canis familiaris; assay: Cmax in beagle dog at 15 mg/kg, po by LC/MS/MS analysis; type: ADME, organism-based, Canis lupus familiaris; parameters: dose 15 mg/kg, route oral; conditions: in vivo
[18] = target: Mitogen-activated protein kinase 3 (Homo sapiens) (UniProt P27361); assay: Inhibition of ERK1 (unknown origin) at 1 uM
[19] = target: Prostaglandin G/H synthase 1 (Homo sapiens) (UniProt P23219); assay: Inhibition of COX-1 (unknown origin) at 1 uM
[20] = species: Homo sapiens; assay: Inhibition of lipase (unknown origin) at 1 uM
[21] = target: Death-associated protein kinase 1 (Homo sapiens) (UniProt P53355); assay: Inhibition of DAPK1 (unknown origin) at 1 uM
[22] = target: Receptor-type tyrosine-protein kinase FLT3 (Homo sapiens) (UniProt P36888); assay: Inhibition of FLT3 (unknown origin) at 1 uM
[23] = target: Adenosine receptor A1 (Homo sapiens) (UniProt P30542); assay: Inhibition of adenosine receptor A1 (unknown origin) at 1 uM
[24] = species: Homo sapiens; assay: Inhibition of neural phospholipase (unknown origin) at 1 uM
[25] = Clearance in beagle dog at 5 mg/kg, iv by LC/MS/MS analysis; type: ADME, organism-based, Canis lupus familiaris; conditions: in vivo
[26] = species: Homo sapiens; assay: Inhibition of calcium channel (unknown origin) at 1 uM
[27] = target: Calcium/calmodulin-dependent protein kinase type II subunit delta (Homo sapiens) (UniProt Q13557); assay: Inhibition of CAMK2D (unknown origin) at 1 uM
[28] = target: D(1A) dopamine receptor (Homo sapiens) (UniProt P21728); assay: Inhibition of dopamine D1 receptor (unknown origin) at 1 uM
[29] = Drug uptake in beagle dog lung by LC/MS/MS analysis; type: ADME, tissue-based, Canis lupus familiaris; conditions: in vivo
[30] = AUC (0 to 24 hrs) in beagle dog at 15 mg/kg, po by LC/MS/MS analysis; type: ADME, organism-based, Canis lupus familiaris; parameters: dose 15 mg/kg, time < 24 hr, route oral; conditions: in vivo
[31] = species: Homo sapiens; assay: Inhibition of proteasome (unknown origin) at 1 uM
[32] = in vivo; conditions: beagle, dog, po, 45 mg/kg
Description: Half life in beagle dog at 45 mg/kg, po by LC/MS/MS analysis

[33] = test system: Canis familiaris; assay: Biotransformation in po dosed beagle dog assessed as (S)-Ethyl 4-(2-bromo-4-fluorophenyl)-6-(morpholinomethyl)-2-(thiazol-2-yl)-1,4-dihydropyrimidine-5-carboxylate formation; type: ADME, organism-based, Canis lupus familiaris; conditions: in vivo
[34] = target: Low molecular weight phosphotyrosine protein phosphatase (Homo sapiens) (UniProt P24666); assay: Inhibition of ACP1 (unknown origin) at 1 uM
[35] = target: NAD-dependent protein deacetylase sirtuin-1 (Homo sapiens) (UniProt Q96EB6); assay: Inhibition of SIRT1 (unknown origin) at 1 uM
[36] = target: Sodium/potassium-transporting ATPase (Homo sapiens) (UniProt P05023+P14415+P05026+P50993+P54709+P13637+Q13733+P54710); assay: Inhibition of Sodium/potassium-transporting ATPase (unknown origin) at 1 uM; type: protein-complex assay
[37] = AUC (0 to 24 hrs) in beagle dog at 45 mg/kg, po by LC/MS/MS analysis; type: ADME, organism-based, Canis lupus familiaris; parameters: time < 24 hr, dose 45 mg/kg, route oral; conditions: in vivo
[38] = target: Interleukin-8 receptors, CXCR1/CXCR2 (Homo sapiens) (UniProt P25025+P25024); assay: Inhibition of CXCR1/2 (unknown origin) at 1 uM; type: protein assay
[39] = in vivo; conditions: beagle, dog, po, 15 mg/kg
Description: Half life in beagle dog at 15 mg/kg, po by LC/MS/MS analysis

[40] = target: Nitric oxide synthase, inducible (Homo sapiens) (UniProt P35228); assay: Inhibition of iNOS (unknown origin) at 1 uM
[41] = in vivo; conditions: beagle, dog, po, 15 mg/kg; remark: listed apart in the source
Description: Half life in beagle dog at 15 mg/kg, po for 7 days by LC/MS/MS analysis

[42] = target: 72 kDa type IV collagenase (Homo sapiens) (UniProt P08253); assay: Inhibition of MMP2 (unknown origin) at 1 uM
[43] = test system: Mus musculus; assay: Biotransformation in po dosed mouse assessed as (S)-Ethyl 4-(2-bromo-4-fluorophenyl)-6-(morpholinomethyl)-2-(thiazol-2-yl)-1,4-dihydropyrimidine-5-carboxylate formation; type: ADME, organism-based; conditions: in vivo
[44] = Half life in beagle dog at 5 mg/kg, iv by LC/MS/MS analysis; conditions: in vivo
[45] = target: RAC-alpha serine/threonine-protein kinase (Homo sapiens) (UniProt P31749); assay: Inhibition of AKT1 (unknown origin) at 1 uM
[46] = target: Proto-oncogene tyrosine-protein kinase Src (Homo sapiens) (UniProt P12931); assay: Inhibition of SRC (unknown origin) at 1 uM
[47] = target: Disintegrin and metalloproteinase domain-containing protein 17 (Homo sapiens) (UniProt P78536); assay: Inhibition of TACE (unknown origin) at 1 uM
[48] = Drug uptake in beagle dog brain by LC/MS/MS analysis; type: ADME, tissue-based, Canis lupus familiaris; conditions: in vivo
[49] = AUC (0 to 24 hrs) in beagle dog at 5 mg/kg, po by LC/MS/MS analysis; type: ADME, organism-based, Canis lupus familiaris; parameters: time < 24 hr, dose 5 mg/kg, route oral; conditions: in vivo
[50] = target: Tyrosine-protein kinase ABL1 (Homo sapiens) (UniProt P00519); assay: Inhibition of ABL1 (unknown origin) at 1 uM
[51] = Half life in beagle dog at 5 mg/kg, po by LC/MS/MS analysis; conditions: in vivo
[52] = in vivo; conditions: beagle, dog, po, 5 mg/kg
[53] = Volume of distribution at steady state in beagle dog at 5 mg/kg, iv by LC/MS/MS analysis; type: ADME, organism-based, Canis lupus familiaris; conditions: in vivo, read-out: Vdss
[54] = Drug uptake in beagle dog heart by LC/MS/MS analysis; type: ADME, tissue-based, Canis lupus familiaris; conditions: in vivo
[55] = AUC (0 to 24 hrs) in beagle dog at 15 mg/kg, po for 7 days by LC/MS/MS analysis; type: ADME, organism-based, Canis lupus familiaris; parameters: time < 24 hr, dose 15 mg/kg, route oral; conditions: in vivo
[56] = target: Trypsin (Homo sapiens) (UniProt P07477+P07478+P35030); assay: Inhibition of trypsin (unknown origin) at 1 uM; type: protein assay
[57] = Toxicity in beagle dog administered via oral gavage for 28 days; type: organism-based, Canis lupus familiaris; conditions: in vivo
[58] = target: Oxysterols receptor LXR-beta (Homo sapiens) (UniProt P55055); assay: Antagonist activity at LXRbeta (unknown origin) at 1 uM
[59] = target: Sodium-dependent serotonin transporter (Homo sapiens) (UniProt P31645); assay: Inhibition of 5-Serotonin transporter (unknown origin) at 1 uM

Chain of Oxysterols receptor LXR-beta (Homo sapiens) (P55055 whole entry): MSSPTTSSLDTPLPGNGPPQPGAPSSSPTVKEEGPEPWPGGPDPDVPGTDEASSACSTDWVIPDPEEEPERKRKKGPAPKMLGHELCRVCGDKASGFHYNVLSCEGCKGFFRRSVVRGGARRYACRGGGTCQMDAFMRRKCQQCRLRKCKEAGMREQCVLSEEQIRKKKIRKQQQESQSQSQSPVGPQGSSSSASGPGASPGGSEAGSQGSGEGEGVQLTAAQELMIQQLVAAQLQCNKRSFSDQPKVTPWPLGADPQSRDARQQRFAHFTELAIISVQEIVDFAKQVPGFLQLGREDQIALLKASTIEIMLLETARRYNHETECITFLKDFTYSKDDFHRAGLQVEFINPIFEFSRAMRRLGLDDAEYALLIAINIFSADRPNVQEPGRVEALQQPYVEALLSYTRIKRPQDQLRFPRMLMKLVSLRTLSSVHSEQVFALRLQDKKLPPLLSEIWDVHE
Chain of Bile acid receptor (Homo sapiens) (Q96RI1 whole entry): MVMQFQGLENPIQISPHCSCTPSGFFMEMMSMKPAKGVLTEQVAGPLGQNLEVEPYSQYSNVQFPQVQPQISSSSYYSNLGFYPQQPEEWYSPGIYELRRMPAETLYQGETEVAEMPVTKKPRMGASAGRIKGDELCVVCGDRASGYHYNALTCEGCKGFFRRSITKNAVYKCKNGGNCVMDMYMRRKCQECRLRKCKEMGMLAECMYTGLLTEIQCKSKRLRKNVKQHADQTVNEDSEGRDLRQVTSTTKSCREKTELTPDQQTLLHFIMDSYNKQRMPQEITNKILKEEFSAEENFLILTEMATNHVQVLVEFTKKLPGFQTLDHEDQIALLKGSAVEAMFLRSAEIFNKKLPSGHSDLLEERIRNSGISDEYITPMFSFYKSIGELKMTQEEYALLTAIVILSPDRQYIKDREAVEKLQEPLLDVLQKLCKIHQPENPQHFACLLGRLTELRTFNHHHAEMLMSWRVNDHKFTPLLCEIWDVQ
Chain of Core antigen (Hepatitis B virus) (Q03732 as listed by the source): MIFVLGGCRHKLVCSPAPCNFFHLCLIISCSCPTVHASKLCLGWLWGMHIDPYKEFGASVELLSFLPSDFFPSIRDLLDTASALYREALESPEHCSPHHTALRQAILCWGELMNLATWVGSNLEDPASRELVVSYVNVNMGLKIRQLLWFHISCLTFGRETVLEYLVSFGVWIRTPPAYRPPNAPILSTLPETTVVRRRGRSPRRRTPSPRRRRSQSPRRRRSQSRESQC
Chain of Disintegrin and metalloproteinase domain-containing protein 17 (Homo sapiens) (P78536 whole entry, the tested form may be a part): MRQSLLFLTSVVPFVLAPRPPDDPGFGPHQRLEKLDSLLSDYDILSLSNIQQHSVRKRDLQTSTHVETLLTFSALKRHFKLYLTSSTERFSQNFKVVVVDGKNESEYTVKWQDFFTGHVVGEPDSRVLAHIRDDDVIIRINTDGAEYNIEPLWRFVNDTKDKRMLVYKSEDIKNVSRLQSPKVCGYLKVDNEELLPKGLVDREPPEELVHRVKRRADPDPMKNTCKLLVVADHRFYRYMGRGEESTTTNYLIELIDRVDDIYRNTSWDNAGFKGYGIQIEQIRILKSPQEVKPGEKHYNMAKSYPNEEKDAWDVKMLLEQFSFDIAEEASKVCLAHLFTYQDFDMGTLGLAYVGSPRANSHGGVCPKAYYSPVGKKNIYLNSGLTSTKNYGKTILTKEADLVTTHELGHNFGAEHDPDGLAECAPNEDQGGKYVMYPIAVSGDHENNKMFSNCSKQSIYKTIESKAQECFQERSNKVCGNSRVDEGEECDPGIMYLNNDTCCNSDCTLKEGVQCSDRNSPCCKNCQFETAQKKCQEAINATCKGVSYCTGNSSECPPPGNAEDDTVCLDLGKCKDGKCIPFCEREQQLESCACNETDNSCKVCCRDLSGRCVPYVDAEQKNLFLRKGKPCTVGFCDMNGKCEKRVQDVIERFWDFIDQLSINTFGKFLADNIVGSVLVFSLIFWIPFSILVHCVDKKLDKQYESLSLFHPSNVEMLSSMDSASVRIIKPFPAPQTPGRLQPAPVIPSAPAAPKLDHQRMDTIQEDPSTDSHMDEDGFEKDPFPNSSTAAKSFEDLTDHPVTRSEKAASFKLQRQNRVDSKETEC
Chain of RAC-alpha serine/threonine-protein kinase (Homo sapiens) (P31749 whole entry): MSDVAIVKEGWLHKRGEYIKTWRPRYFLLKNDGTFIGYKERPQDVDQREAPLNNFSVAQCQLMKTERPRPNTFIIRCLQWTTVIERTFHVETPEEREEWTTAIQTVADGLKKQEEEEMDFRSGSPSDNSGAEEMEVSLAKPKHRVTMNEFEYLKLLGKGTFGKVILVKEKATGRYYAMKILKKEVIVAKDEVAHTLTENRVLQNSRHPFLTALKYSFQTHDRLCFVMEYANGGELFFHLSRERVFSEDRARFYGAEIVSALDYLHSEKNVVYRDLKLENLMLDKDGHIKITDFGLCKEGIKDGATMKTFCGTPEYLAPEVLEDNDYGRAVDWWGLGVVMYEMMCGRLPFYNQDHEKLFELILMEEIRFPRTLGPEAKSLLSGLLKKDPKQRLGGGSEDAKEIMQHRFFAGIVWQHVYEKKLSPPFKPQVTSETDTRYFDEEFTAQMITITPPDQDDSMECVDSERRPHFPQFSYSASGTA
Chain of Receptor-type tyrosine-protein kinase FLT3 (Homo sapiens) (P36888 whole entry): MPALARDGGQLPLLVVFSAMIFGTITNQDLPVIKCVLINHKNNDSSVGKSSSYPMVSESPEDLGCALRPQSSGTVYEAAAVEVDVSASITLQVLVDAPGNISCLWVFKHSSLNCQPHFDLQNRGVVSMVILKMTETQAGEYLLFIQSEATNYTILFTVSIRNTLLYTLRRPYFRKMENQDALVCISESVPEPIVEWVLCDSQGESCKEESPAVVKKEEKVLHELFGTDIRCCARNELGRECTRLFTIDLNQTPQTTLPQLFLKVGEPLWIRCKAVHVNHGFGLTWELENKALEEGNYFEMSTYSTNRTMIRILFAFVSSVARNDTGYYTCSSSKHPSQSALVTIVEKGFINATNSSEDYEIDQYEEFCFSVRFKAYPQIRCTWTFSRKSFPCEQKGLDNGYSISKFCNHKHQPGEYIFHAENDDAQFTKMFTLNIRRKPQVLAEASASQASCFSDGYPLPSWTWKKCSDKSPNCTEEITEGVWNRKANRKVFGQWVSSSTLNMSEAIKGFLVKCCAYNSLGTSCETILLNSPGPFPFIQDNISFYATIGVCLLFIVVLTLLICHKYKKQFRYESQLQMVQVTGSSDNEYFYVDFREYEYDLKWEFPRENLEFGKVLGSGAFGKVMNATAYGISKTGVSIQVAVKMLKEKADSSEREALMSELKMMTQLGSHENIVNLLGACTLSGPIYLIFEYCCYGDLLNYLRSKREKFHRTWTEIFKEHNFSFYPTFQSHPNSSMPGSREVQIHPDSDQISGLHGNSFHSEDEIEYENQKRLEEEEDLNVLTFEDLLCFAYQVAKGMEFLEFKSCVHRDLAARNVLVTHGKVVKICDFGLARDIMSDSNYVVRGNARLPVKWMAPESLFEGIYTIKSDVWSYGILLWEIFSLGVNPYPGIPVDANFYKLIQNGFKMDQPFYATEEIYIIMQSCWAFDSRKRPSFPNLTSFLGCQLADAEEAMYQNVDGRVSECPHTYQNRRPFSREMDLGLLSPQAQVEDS
Chain of Tyrosine-protein kinase JAK2 (Homo sapiens) (O60674 whole entry): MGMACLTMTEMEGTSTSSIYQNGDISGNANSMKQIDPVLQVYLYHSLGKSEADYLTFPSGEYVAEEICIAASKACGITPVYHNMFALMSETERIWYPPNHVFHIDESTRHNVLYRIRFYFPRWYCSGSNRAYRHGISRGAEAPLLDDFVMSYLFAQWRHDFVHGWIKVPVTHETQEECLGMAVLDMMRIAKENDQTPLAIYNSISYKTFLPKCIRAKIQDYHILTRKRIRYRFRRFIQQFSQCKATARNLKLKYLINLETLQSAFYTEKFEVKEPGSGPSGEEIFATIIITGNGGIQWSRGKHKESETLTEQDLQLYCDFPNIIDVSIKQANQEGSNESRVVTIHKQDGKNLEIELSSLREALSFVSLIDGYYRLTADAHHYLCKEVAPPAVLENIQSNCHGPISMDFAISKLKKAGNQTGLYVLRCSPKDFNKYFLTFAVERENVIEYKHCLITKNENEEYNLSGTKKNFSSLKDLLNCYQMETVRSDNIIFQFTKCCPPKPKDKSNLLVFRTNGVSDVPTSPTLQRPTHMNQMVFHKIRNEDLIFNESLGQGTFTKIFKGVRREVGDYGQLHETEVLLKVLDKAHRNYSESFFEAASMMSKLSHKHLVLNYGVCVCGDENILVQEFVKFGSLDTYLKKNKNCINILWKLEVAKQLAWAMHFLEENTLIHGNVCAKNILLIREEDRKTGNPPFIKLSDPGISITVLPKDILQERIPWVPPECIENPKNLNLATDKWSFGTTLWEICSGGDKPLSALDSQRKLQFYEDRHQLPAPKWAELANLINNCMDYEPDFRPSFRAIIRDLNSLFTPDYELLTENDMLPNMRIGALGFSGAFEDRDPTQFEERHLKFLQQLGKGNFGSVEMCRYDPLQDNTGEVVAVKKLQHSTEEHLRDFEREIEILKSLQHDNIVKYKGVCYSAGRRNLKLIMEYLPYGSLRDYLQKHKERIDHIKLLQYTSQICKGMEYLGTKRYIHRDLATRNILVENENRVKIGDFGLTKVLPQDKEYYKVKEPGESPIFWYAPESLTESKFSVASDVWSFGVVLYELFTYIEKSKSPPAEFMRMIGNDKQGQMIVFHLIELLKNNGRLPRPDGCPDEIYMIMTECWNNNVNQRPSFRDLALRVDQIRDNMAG
Chain of Adenosine receptor A1 (Homo sapiens) (P30542 whole entry): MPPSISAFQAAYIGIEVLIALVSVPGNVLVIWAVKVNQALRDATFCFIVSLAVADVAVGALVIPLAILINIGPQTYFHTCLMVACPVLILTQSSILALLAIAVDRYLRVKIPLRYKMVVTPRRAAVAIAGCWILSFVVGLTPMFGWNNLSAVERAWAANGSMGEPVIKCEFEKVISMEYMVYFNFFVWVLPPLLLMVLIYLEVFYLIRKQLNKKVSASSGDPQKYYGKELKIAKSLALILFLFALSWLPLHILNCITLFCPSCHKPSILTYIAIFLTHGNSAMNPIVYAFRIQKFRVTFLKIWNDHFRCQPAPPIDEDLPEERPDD

COC(=O)C1=C(C)NC(c2ncc(F)cc2F)=N[C@H]1c1ccc(F)cc1Cl
EC90 [1]: 0.102 µM

CCOC(=O)C1=C(CN2CCOCC2)NC(c2nccs2)=NC1c1ccc(F)cc1Br (stereo not given)
Activity [2]: 2% | Cmax [3]: 1180 ng/mL | Drug metabolism [4]: Metabolite_Notdetected | inhibition [5]: 10% | inhibition [6]: 25% | AUC(0-t) at 24 h [7]: 4350 ng·h/mL | inhibition [8]: 4% | inhibition [9]: 9% | Cmax [10]: 136 ng/mL | Cmax [11]: 524 ng/mL | Drug metabolism [12]: Metabolite_Notdetected | inhibition [13]: 0% | inhibition [14]: 1% | Drug uptake [15]: Active | Activity [16]: 5% | Cmax [17]: 698 ng/mL | inhibition [18]: 7% | inhibition [19]: -10% | inhibition [20]: 4% | inhibition [21]: 3% | inhibition [22]: 4% | inhibition [23]: 1% | EC90 [1]: 0.006 µM | inhibition [24]: 9% | clearance [25]: 17.9 mL/min/kg | inhibition [26]: -6% | inhibition [27]: 11% | inhibition [28]: 7% | Drug uptake [29]: Not Active | AUC(0-t) at 24 h [30]: 2760 ng·h/mL | inhibition [31]: 2% | half-life [32]: 6.29 h | Drug metabolism [33]: Metabolite_Notdetected | inhibition [34]: -4% | inhibition [35]: 7% | inhibition [36]: 4% | AUC(0-t) at 24 h [37]: 8470 ng·h/mL | inhibition [38]: 8% | half-life [39]: 7.32 h | inhibition [40]: 7% | half-life at 168 h [41]: 9.47 h | inhibition [42]: -3% | Drug metabolism [43]: Metabolite_Notdetected | half-life [44]: 9.85 h | inhibition [45]: -3% | inhibition [46]: -3% | inhibition [47]: 2% | Drug uptake [48]: Not Active | AUC(0-t) at 24 h [49]: 695 ng·h/mL | inhibition [50]: 2% | half-life [51]: 6.91 h | bioavailability [52]: 15.6% | Vd [53]: 6.86 L/kg | Drug uptake [54]: Not Active | AUC at 24 h [55]: 2830 ng·h/mL | inhibition [56]: 4% | NOAEL at 672 h [57]: 10 mg/kg | inhibition [58]: -7% | inhibition [59]: -1%

Source: ChEMBL document CHEMBL4177524, “Discovery of hepatitis B virus capsid assembly inhibitors leading to a heteroaryldihydropyrimidine based clinical candidate (GLS4)” (Bioorg Med Chem, 2017)
